Values of other authors, collected in US20250064759A1, “CONTAINER COMPRISING A LISDEX[…] SOLUTION” (LABOMED PHARMACEUTICAL COMPANY S.A., priority 2021, published 2025).

Conditions: in vivo

C[C@@H](Cc1ccccc1)NC(=O)[C@@H](N)CCCCN [Lisdexamfetamine, L-lysine-d-amfetamine]
period over which dexamfetamine is delivered: about 8 hours
